Experimental data: publication PMC11467779, “New anti-ovarian cancer quinolone derivatives acting by modulating microRNA processing machinery” (RSC Medicinal Chemistry, 2024)

Tests used:
hTopII = molecular target: T1, hTopII (Homo sapiens, UniProt P11388); assay: Detection of hTOP2α cleavage complexes (cleavage assay); type: cell-based; conditions: 100 μM
T1 construct: endogenous in cells
Method: (§1) After compound treatments, 1 × 10^6 human cells in 35 mm dish per sample were washed with 1× phosphate-buffered saline (PBS) and lysed with 600 μL of DNAzol (Invitrogen), followed by precipitation with 300 μL of 200 proof ethanol. The nucleic acids were collected, washed with 75% ethanol, resuspended in 200 μL of TE buffer, and then heated at 65 °C for 15 min, followed by shearing with sonication (40% output for 10 s pulse and 10 s rest for four times). The samples were centrifuged at 15 000 rpm for 5 min at 4 °C, and the supernatant were collected. 1 μL of each sample was removed for spectrophotometric measurement of absorbance at 260 nm to quantitate DNA content (NanoDrop). 2 μg of each sample was subjected to slot-blot for immunoblotting using anti-hTOP1 antibody (BD Pharmingen, 556597) and anti-hTOP2α antibody (Santa Cruz biotechnology, 365916).[51]

[1] = Cytotoxicity against non-tumor Wi-38 cells (CC50, cell count); type: cell-based; conditions: human, Wi-38 cells (non-tumor), 50% cytotoxicity concentration, 72 hours of treatment
Method: (§2) SKOV-3, A2780 and A2780 CIS were cultured and maintained, as previously described,[50] at 37 °C in RPMI 1640 medium (Euroclone) supplemented with 10% fetal bovine serum (FBS; Euroclone), L-glutamine and penicillin/streptomycin (SIGMA-ALDRICH). OVCA433, HEK-293T, HeLa, HCCLM3, SK-Hep-1, MCF-7, A549 and HCT-116 cells were maintained in DMEM medium (Euroclone) containing 10% FBS (Euroclone), L-glutamine and penicillin/streptomycin (SIGMA-ALDRICH). Wi-38 cells were cultured in DMEM medium (Euroclone) supplemented with 10% FBS (Euroclone), L-glutamine and penicillin/streptomycin (SIGMA-ALDRICH), and 1% non-essential amino acids (NEAA; Euroclone). The cultures were maintained in a constant temperature incubator at 37 °C with 5% CO2. […] Once cell adhesion had been promoted, the compounds were added to the culture medium. After 72 hours of treatment, the cells were counted, and the data analyzed by linear regression. Each experiment was carried out three times in triplicate and three separate cell counts were made for each sample. […] Afterwards, the concentration range was narrowed to the relative value obtained in the first evaluation in order to obtain an accurate value.

hTopI = molecular target: T2, hTopI (Homo sapiens, UniProt P11387); assay: Detection of hTOP1 cleavage complexes (cleavage assay); type: cell-based; conditions: 100 μM
T2 construct: endogenous in cells
Method: as §1

SKOV-3 cell line = assay: Antiproliferative effect against the SKOV-3 cell line (GI50, cell count); type: cell-based, human
Method: as §2

miRNA processing / RNAi = tested on: miRNA processing / RNAi; design: method as in PMID 18641635; conditions: cited from earlier work
[2] = tested on: cisplatin-resistant A2780 cells (A2780 CIS); assay: Viable cells of cisplatin-resistant A2780 (A2780 CIS) treated with 33, cisplatin or both; type: cell-based, human; conditions: cisplatin 1 μM, 48 hours
Method: A2780 and SKOV-3 cells were treated with 50 μM of 33 for 72 h before RNA and protein extraction and expression analyses. A2780 and A2780 CIS were treated with 33 (30 μM) and/or cisplatin (1 μM, Sigma-Aldrich) for 48 hours while MCF-7, A549 and HCT-116 were treated with 33 (30 μM) for 72 hours. Total cell number and viability have been assessed using Trypan Blue Solution (Thermo Fisher Scientific) and Countess™ 3 Automated Cell Counter (Thermo Fisher Scientific).

[3] = 50% cell growth inhibition, 72 hours of treatment, cell count, ND = activity not dose dependent
[4] = Homo sapiens, SK-OV-3, 72 h, 50% cell growth inhibition, 72 hours of treatment, cell count, ND = activity not dose dependent

T1 sequence (P11388 whole entry): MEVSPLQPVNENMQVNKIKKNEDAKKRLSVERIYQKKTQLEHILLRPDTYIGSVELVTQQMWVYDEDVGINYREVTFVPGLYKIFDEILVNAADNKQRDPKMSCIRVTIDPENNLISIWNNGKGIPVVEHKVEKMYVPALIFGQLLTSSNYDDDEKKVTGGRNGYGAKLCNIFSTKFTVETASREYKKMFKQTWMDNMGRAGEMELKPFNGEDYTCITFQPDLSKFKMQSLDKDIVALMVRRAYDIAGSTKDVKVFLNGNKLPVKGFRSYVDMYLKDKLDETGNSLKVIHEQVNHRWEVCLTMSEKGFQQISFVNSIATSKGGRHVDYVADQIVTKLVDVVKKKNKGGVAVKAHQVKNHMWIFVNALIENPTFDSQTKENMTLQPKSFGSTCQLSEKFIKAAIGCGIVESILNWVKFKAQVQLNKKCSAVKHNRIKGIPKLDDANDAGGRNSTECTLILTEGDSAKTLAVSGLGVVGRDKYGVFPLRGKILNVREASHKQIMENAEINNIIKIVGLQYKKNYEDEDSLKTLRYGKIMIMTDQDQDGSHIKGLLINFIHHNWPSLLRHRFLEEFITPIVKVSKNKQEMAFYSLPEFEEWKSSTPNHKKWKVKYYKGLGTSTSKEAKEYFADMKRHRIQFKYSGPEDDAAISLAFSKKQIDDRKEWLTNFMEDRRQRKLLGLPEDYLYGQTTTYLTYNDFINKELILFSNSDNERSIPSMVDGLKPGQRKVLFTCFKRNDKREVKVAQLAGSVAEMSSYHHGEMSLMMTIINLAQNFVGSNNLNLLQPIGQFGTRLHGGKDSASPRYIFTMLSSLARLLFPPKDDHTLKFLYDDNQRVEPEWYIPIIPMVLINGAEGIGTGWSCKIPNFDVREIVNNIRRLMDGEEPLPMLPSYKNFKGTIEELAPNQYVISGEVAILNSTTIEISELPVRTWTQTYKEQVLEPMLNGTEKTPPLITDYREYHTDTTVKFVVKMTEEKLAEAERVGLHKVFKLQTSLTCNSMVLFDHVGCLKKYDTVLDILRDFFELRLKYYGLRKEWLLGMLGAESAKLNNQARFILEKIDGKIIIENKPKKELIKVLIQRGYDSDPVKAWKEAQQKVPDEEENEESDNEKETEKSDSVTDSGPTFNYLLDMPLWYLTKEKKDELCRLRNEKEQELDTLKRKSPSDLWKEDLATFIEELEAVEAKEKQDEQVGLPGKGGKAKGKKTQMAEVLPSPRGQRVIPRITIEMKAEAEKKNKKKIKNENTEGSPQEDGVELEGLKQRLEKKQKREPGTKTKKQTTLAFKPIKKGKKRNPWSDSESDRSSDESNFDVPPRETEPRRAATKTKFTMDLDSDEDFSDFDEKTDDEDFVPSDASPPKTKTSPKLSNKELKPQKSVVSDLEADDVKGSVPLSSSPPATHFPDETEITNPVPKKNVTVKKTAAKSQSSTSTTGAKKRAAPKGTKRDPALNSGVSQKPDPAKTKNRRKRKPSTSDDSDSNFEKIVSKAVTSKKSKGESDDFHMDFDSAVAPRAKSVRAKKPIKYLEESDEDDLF
T2 sequence (P11387 whole entry): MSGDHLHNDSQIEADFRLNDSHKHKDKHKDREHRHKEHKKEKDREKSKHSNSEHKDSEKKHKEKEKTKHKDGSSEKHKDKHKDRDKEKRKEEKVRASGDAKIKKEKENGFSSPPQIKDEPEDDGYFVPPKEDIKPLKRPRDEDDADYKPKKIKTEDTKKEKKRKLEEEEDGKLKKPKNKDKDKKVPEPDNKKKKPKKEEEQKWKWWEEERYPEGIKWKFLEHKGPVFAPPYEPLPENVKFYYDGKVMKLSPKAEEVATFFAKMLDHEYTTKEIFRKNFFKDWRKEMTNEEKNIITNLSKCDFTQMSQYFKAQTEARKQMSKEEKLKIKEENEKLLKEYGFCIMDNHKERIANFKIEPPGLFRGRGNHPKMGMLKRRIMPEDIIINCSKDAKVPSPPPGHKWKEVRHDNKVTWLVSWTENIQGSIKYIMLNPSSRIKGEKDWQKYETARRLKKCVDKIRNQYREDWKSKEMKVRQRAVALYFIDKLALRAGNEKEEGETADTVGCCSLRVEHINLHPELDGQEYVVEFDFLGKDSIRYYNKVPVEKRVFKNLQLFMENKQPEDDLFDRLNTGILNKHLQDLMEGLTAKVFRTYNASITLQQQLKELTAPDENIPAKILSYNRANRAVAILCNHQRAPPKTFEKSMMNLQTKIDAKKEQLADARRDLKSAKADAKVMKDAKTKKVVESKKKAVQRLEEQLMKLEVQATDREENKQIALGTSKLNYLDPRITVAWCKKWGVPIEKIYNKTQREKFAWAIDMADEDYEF

Row | SMILES | GI50 (SKOV-3 cell line; [4]) [µM] | CC50 at 72 h [1] [µM] | further results
1 | Cn1cc(C(=O)O)c(=O)c2cc(N)c(N3CCN(c4nccs4)CC3)cc21 [Compound 8] | 50 | – | –
2 | Cn1cc(C(=O)O)c(=O)c2ccc(N3CCN(c4nccs4)CC3)nc21 [Compound 9] | 50 | – | –
3 | CN1CCN(c2c(F)cc3c(=O)c(C(=O)O)cn4c3c2SCC4)CC1 [Compound 10, rufloxacin, reference compound] | 100 | – | –
4 | CCn1cc(C(=O)O)c(=O)c2cc(N)c(N3CCc4ccccc4C3)c(C)c21 [Compound 11, 6-Amino-7-(3,4-dihydroisoquinolin-2(1H)-yl)-1-ethyl-8-methyl-4-oxo-1,4-dihydroquinoline-3-carboxylic acid] | 13.1 ± 1.29 | 53.5 ± 20.6 | fold more toxic against tumor cells (CC50 Wi-38 vs GI50 SKOV-3) (SKOV-3 cell line; SKOV-3 versus Wi-38): approximately 4 fold
5 | CCn1cc(C(=O)O)c(=O)c2cc(N)c(N3CCc4ccccc4C3)cc21 [Compound 16, 6-Amino-7-(3,4-dihydroisoquinolin-2(1H)-yl)-1-ethyl-4-oxo-1,4-dihydroquinoline-3-carboxylic acid] | 5.44 ± 0.13 | 8.19 ± 14.3 | –
6 | NC(=O)c1cn(C2CC2)c2cc(N3CCc4ccccc4C3)c(N)cc2c1=O [Compound 17, 6-Amino-1-cyclopropyl-7-(3,4-dihydroisoquinolin-2(1H)-yl)-4-oxo-1,4-dihydroquinoline-3-carboxamide] | – | – | GI50 SKOV-3 (SKOV-3 cell line; [3]): completely inactive
7 | Nc1cc2c(=O)c(C(=O)O)cn(C3CC3)c2cc1N1CCNc2ccccc21 [Compound 20, 6-Amino-1-cyclopropyl-7-(3,4-dihydroquinoxalin-1(2H)-yl)-4-oxo-1,4-dihydroquinoline-3-carboxylic acid] | 65.4 ± 24.3 | – | –
8 | Nc1cc2c(=O)c(C(=O)O)cn(C3CC3)c2cc1N1Cc2ccccc2C[C@H]1CO [Compound 23, 6-Amino-1-cyclopropyl-7-[(3S)-3-(hydroxymethyl)-3,4-dihydroisoquinolin-2(1H)-yl]-4-oxo-1,4-dihydroquinoline-3-carboxylic acid] | 46.2 ± 8.38 | – | –
9 | CCN(Cc1ccccc1)c1cc2c(cc1N)c(=O)c(C(=O)O)cn2C1CC1 [Compound 25, 6-Amino-7-[benzyl(ethyl)amino]-1-cyclopropyl-4-oxo-1,4-dihydroquinoline-3-carboxylic acid] | 16 ± 2.94 | 79.7 ± 11.8 | –
10 | Nc1cc2c(=O)c(C(=O)O)cn(C3CC3)c2cc1N(CCO)Cc1ccccc1 [Compound 26, 6-Amino-7-[benzyl(2-hydroxyethyl)amino]-1-cyclopropyl-4-oxo-1,4-dihydroquinoline-3-carboxylic acid] | 33.9 ± 6.43 | – | fold increase in GI50 SKOV-3 versus 25 (SKOV-3 cell line; versus compound 25): 2 fold
11 | O=C(O)c1cn(C2CC2)c2nc(N3CCc4ccccc4C3)c(F)cc2c1=O [Compound 28, 1-Cyclopropyl-7-(3,4-dihydroisoquinolin-2(1H)-yl)-6-fluoro-4-oxo-1,4-dihydro-1,8-naphthyridine-3-carboxylic acid] | 46.8 ± 7.44 | – | –
12 | CCN(Cc1ccccc1)c1nc2c(cc1F)c(=O)c(C(=O)O)cn2CC [Compound 29, 7-[Benzyl(ethyl)amino]-1-ethyl-6-fluoro-4-oxo-1,4-dihydro-1,8-naphthyridine-3-carboxylic acid] | 16.2 ± 1.03 | 25.5 ± 11.5 | –
13 | CCn1cc(C(=O)O)c(=O)c2cc(F)c(N3CCC(c4ccccc4)CC3)nc21 [Compound 30, 1-Ethyl-6-fluoro-4-oxo-7-(4-phenylpiperidin-1-yl)-1,4-dihydro-1,8-naphthyridine-3-carboxylic acid] | 8.34 ± 1.28 | 4.65 ± 5.96 | –
14 | CCn1cc(C(=O)O)c(=O)c2cc(F)c(N3CCc4ccccc4C3)c(C)c21 [Compound 31, 7-(3,4-Dihydroisoquinolin-2(1H)-yl)-1-ethyl-6-fluoro-8-methyl-4-oxo-1,4-dihydroquinoline-3-carboxylic acid] | 14.9 ± 3.24 | 56.6 ± 37.4 | –
15 | O=C(O)c1cn(C2CC2)c2cc(N3CCNCC3)c(F)cc2c1=O [ciprofloxacin] | – | – | RNAi enhancer / SMER effect (miRNA processing / RNAi): very weak SMER
16 | N.N.[Cl][Pt][Cl] [cisplatin, reference compound] | – | – | resistance of A2780 CIS to cisplatin compared to A2780 [2]: significantly greater resistance to cisplatin
17 | CC1COc2c(N3CCN(C)CC3)c(F)cc3c(=O)c(C(=O)O)cn1c23 (centres unmarked) [ofloxacin] | – | – | RNAi enhancer / SMER effect (miRNA processing / RNAi): did not show any significant RNAi enhancer effect

Continued, in another order:

Row | GI50 (SKOV-3 cell line; [4]) [µM] | SMILES | CC50 at 72 h [1] [µM] | further results
18 | 38 | Cc1c(N2CCc3ccccc3C2)c(N)cc2c(=O)c(C(=O)O)cn(C3CC3)c12 [Compound 5] | 38.5 ± 29 | trapping/inhibition of hTopII (cleavage assay) (hTopII): did not trap human topoisomerases; trapping/inhibition of hTopI (cleavage assay) (hTopI): did not trap human topoisomerases; GI50 (SKOV-3 cell line; [3]): 37.7 ± 3.38 µM; GI50 SKOV-3, fold lower than enoxacin (SKOV-3 cell line; versus enoxacin): about 3 fold
19 | 17.1 ± 2.61 | Cc1c(N2CCC(c3ccccc3)CC2)c(N)cc2c(=O)c(C(=O)O)cn(C3CC3)c12 [Compound 12, 6-Amino-1-cyclopropyl-8-methyl-4-oxo-7-(4-phenylpiperidin-1-yl)-1,4-dihydroquinoline-3-carboxylic acid] | 53 ± 14.9 | –
20 | 28.8 ± 4.11 | Cc1c(N2Cc3ccccc3C2)c(N)cc2c(=O)c(C(=O)O)cn(C3CC3)c12 [Compound 13, 6-Amino-1-cyclopropyl-7-(1,3-dihydro-2H-isoindol-2-yl)-8-methyl-4-oxo-1,4-dihydroquinoline-3-carboxylic acid] | – | –
21 | 103 ± 21.6 | Cc1c(NCCN2CCCCC2)c(N)cc2c(=O)c(C(=O)O)cn(C3CC3)c12 [Compound 14, 6-Amino-1-cyclopropyl-8-methyl-4-oxo-7-[(2-piperidin-1-ylethyl)amino]-1,4-dihydroquinoline-3-carboxylic acid] | – | –
22 | 13.2 ± 1.13 | Nc1cc2c(=O)c(C(=O)O)cn(C3CC3)c2cc1N1CCc2ccccc2C1 [Compound 15, 6-Amino-1-cyclopropyl-7-(3,4-dihydroisoquinolin-2(1H)-yl)-4-oxo-1,4-dihydroquinoline-3-carboxylic acid] | 36.3 ± 8.86 | –
23 | 152 ± 3.05 | Nc1cc2c(=O)c(C(=O)O)cn(C3CC3)c2cc1N1CCc2ncncc2C1 [Compound 18, 6-Amino-1-cyclopropyl-7-(7,8-dihydropyrido[4,3-d]pyrimidin-6(5H)-yl)-4-oxo-1,4-dihydroquinoline-3-carboxylic acid] | – | –
24 | 104 ± 2.03 | Nc1cc2c(=O)c(C(=O)O)cn(C3CC3)c2cc1N1CCc2nccnc2C1 [Compound 19, 6-Amino-1-cyclopropyl-7-(7,8-dihydropyrido[3,4-b]pyrazin-6(5H)-yl)-4-oxo-1,4-dihydroquinoline-3-carboxylic acid] | – | –
25 | 23.7 ± 1.02 | Nc1cc2c(=O)c(C(=O)O)cn(C3CC3)c2cc1N1CCc2sccc2C1 [Compound 21, 6-Amino-1-cyclopropyl-7-(6,7-dihydrothieno[3,2-c]pyridin-5(4H)-yl)-4-oxo-1,4-dihydroquinoline-3-carboxylic acid] | 103 ± 15.5 | –
26 | 18.5 ± 1.71 | CC1c2ccccc2CCN1c1cc2c(cc1N)c(=O)c(C(=O)O)cn2C1CC1 (centres unmarked) [Compound 22, 6-Amino-1-cyclopropyl-7-(1-methyl-3,4-dihydroisoquinolin-2(1H)-yl)-4-oxo-1,4-dihydroquinoline-3-carboxylic acid] | 59.9 ± 5.95 | –
27 | 9.19 ± 1.05 | Nc1cc2c(=O)c(C(=O)O)cn(C3CC3)c2cc1N1CCC(c2ccccc2)CC1 [Compound 24, 6-Amino-1-cyclopropyl-4-oxo-7-(4-phenylpiperidin-1-yl)-1,4-dihydroquinoline-3-carboxylic acid] | 45 ± 13.4 | –
28 | 25 ± 6.04 | Cc1c(N2CCc3ccccc3C2)c(F)cc2c(=O)c(C(=O)O)cn(C3CC3)c12 [Compound 32, 1-Cyclopropyl-7-(3,4-dihydroisoquinolin-2(1H)-yl)-6-fluoro-8-methyl-4-oxo-1,4-dihydroquinoline-3-carboxylic acid] | 90.7 ± 30.9 | –
